Data published in US11485742B2, “2-azaspiro[3.4]octane derivatives as M4 agonists” (NOVARTIS AG, priority 2019, dated 2022).

Legend:
[1] = target: T1, human cloned CHRM4 receptor (Homo sapiens, UniProt P08173); assay: CHRM4 Ca++ Flux Assay (M4_CHO cells, agonist mode); format: cell-based; settings: for Emax: Percent Activity (PA), read-out: M4 FDSS PA %; for EC50: geometric mean if tested more than once, read-out: M4 FDSS EC50
T1 construct: expressed in transfected cells; host or cells: CHO-K1 (M4_CHO)
T1 sequence (P08173 1-479): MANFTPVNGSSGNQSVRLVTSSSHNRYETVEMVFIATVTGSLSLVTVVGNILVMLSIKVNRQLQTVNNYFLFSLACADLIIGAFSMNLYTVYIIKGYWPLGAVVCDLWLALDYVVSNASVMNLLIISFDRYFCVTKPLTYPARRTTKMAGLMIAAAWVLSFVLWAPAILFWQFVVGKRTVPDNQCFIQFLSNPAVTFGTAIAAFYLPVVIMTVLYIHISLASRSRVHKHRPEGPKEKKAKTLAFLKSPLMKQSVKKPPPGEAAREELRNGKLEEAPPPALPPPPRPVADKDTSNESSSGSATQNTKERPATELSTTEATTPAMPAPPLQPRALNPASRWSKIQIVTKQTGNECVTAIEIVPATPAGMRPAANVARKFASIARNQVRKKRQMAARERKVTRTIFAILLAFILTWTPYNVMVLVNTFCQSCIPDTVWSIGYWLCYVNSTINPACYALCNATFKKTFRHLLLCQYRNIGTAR
In short: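 Agonist-mode calcium flux in an M4-expressing CHO-K1 line: compounds were dosed at 11 points in triplicate and fluorescence was tracked for 3 min. Cells were preloaded with Ca++ dye and kept in −Ca/−Mg HBSS with 20 μM ATP for 60 min. Efficacy is scaled to carbachol EC100; EC50s come from four-parameter regression, geometric mean across runs.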

[2] = target: T2, Cloned human M1 receptor (CHRM1) (Homo sapiens, UniProt P11229); assay: CHRM1 Ca++ Flux Assay (HEK293 M1 cells, agonist mode); format: cell-based; settings: for Emax: Percent Activity (PA), read-out: M1 FDSS PA %; for EC50: geometric mean if tested more than once, read-out: M1 FDSS EC50
T2 construct: expressed in transfected cells; host or cells: HEK293
T2 sequence (P11229 1-460): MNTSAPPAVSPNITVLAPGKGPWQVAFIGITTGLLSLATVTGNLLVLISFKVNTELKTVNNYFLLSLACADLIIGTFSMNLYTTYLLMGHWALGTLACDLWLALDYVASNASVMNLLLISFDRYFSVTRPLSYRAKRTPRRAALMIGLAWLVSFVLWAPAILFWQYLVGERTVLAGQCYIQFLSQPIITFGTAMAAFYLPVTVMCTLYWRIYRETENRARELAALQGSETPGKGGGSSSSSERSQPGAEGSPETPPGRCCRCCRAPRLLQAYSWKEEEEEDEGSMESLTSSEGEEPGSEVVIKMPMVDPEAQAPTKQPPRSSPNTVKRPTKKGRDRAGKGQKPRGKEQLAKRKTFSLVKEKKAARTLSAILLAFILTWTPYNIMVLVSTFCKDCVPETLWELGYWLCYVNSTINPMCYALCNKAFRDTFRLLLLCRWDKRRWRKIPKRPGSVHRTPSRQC
In short: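 In agonist mode, compound-induced intracellular Ca++ mobilization was recorded for 3 min by fluorescent imager. The cells were HEK293 stably expressing cloned human CHRM1, in Ca/Mg-free HBSS with 20 mM HEPES. Triplicate 11-point dose-responses were fitted by four-parameter regression and normalized to the carbachol EC100 response.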

Row | Compound | Emax [1] [%] | EC50 [1] [nM] | Emax [2] [%] | EC50 [2] [nM]
1 | Fc1ccc(OC2COCOC2)c(C2CCN([C@@H]3COC4(C3)CN(c3nnco3)C4)CC2)c1 [Example 1M, (S)-7-(4-(2-((1,3-dioxan-5-yl)oxy)-5-fluorophenyl)piperidin-1-yl)-2-(1,3,4-oxadiazol-2-yl)-5-oxa-2-azaspiro[3.4]octane] | 79 | 94 | 89 | 1370
2 | Fc1ccc(OC2CC3(COC3)C2)c(C2CCN([C@@H]3COC4(C3)CN(c3ncon3)C4)CC2)c1 [Example 6C, (S)-7-(4-(2-((2-oxaspiro[3.3]heptan-6-yl)oxy)-5-fluorophenyl)piperidin-1-yl)-2-(1,2,4-oxadiazol-3-yl)-5-oxa-2-azaspiro[3.4]octane] | 74 | 44 | 65 | 2420
3 | CC1(COc2ccc(F)cc2C2CCN([C@@H]3COC4(C3)CN(c3nnco3)C4)CC2)COC1 [Example 2K, (S)-7-(4-(5-fluoro-2-((3-methyloxetan-3-yl)methoxy)phenyl)piperidin-1-yl)-2-(1,3,4-oxadiazol-2-yl)-5-oxa-2-azaspiro[3.4]octane] | 82 | 18 | 97 | 1360
4 | Fc1ccc(OCC2(F)COC2)c(C2CCN([C@@H]3COC4(C3)CN(c3nnco3)C4)CC2)c1 [Example 2J, (S)-7-(4-(5-fluoro-2-((3-fluorooxetan-3-yl)methoxy)phenyl)piperidin-1-yl)-2-(1,3,4-oxadiazol-2-yl)-5-oxa-2-azaspiro[3.4]octane] | 90 | 12 | 103 | 411
5 | c1ccc(C2CCN([C@@H]3COC4(C3)CN(c3nnco3)C4)CC2)c(-c2cncnc2)c1 [Example 1W, (S)-2-(1,3,4-oxadiazol-2-yl)-7-(4-(2-(pyrimidin-5-yl)phenyl)piperidin-1-yl)-5-oxa-2-azaspiro[3.4]octane] | 89 | 12 | 94 | 335
6 | CCc1nnc(COc2ccc(F)cc2C2CCN([C@@H]3COC4(C3)CN(c3nnco3)C4)CC2)s1 [Example 2T, (S)-7-(4-(2-((5-ethyl-1,3,4-thiadiazol-2-yl)methoxy)-5-fluorophenyl)piperidin-1-yl)-2-(1,3,4-oxadiazol-2-yl)-5-oxa-2-azaspiro[3.4]octane] | 89 | 2 | 89 | 63
7 | CC(C)(O)COc1ccc(F)cc1C1CCN([C@@H]2COC3(C2)CN(c2nnco2)C3)CC1 [Example 1U, (S)-1-(2-(1-(2-(1,3,4-oxadiazol-2-yl)-5-oxa-2-azaspiro[3.4]octan-7-yl)piperidin-4-yl)-4-fluorophenoxy)-2-methylpropan-2-ol] | 73 | 90 | 75 | 961
8 | CC(C)(O)CCOc1cc(F)ccc1C1CCN([C@@H]2COC3(C2)CN(c2nncs2)C3)CC1 [Example 5V, (S)-4-(2-(1-(2-(1,3,4-thiadiazol-2-yl)-5-oxa-2-azaspiro[3.4]octan-7-yl)piperidin-4-yl)-5-fluorophenoxy)-2-methylbutan-2-ol] | 40 | 250 | 79 | 786
9 | COC(C)(C)CCOc1ccc(F)cc1C1CCN([C@@H]2COC3(C2)CN(c2nnco2)C3)CC1 [Example 1K, (S)-7-(4-(5-fluoro-2-(3-methoxy-3-methylbutoxy)phenyl)piperidin-1-yl)-2-(1,3,4-oxadiazol-2-yl)-5-oxa-2-azaspiro[3.4]octane] | 58 | 97 | 58 | 1590
10 | Fc1cc(O[C@@H]2CCOC2)c(C2CCN([C@@H]3COC4(C3)CN(c3nnco3)C4)CC2)cc1F [Example 1R, (S)-7-(4-(4,5-difluoro-2-(((R)-tetrahydrofuran-3-yl)oxy)phenyl)piperidin-1-yl)-2-(1,3,4-oxadiazol-2-yl)-5-oxa-2-azaspiro[3.4]octane] | 77 | 41 | 76 | 670

Now from value to compound:

Row | Emax [1] [%] | EC50 [1] [nM] | Emax [2] [%] | EC50 [2] [nM] | Compound
11 | 82 | 8 | 92 | 210 | Fc1ccc(OC2COC2)c(C2CCN([C@@H]3COC4(C3)CN(c3nnco3)C4)CC2)c1 [Example 1A, (S)-7-(4-(5-fluoro-2-(oxetan-3-yloxy)phenyl)piperidin-1-yl)-2-(1,3,4-oxadiazol-2-yl)-5-oxa-2-azaspiro[3.4]octane]
12 | 79 | 8 | 88 | 490 | Fc1ccc(OC2COC2)c(C2CCN([C@@H]3COC4(C3)CN(c3ncon3)C4)CC2)c1 [Example 6B, (S)-7-(4-(5-fluoro-2-(oxetan-3-yloxy)phenyl)piperidin-1-yl)-2-(1,2,4-oxadiazol-3-yl)-5-oxa-2-azaspiro[3.4]octane]
13 | 75 | 85 | 71 | 2080 | CCC1(COc2ccc(F)cc2C2CCN([C@@H]3COC4(C3)CN(c3nnco3)C4)CC2)COC1 [Example 2P, (S)-7-(4-(2-((3-ethyloxetan-3-yl)methoxy)-5-fluorophenyl)piperidin-1-yl)-2-(1,3,4-oxadiazol-2-yl)-5-oxa-2-azaspiro[3.4]octane]
14 | 42 | 1410 | 0 | > 25000 | Fc1ccc(OC2CC3(COC3)C2)c(C2CCN([C@H]3COC4(C3)CN(c3nnco3)C4)CC2)c1 [Example 7A, (R)-7-(4-(2-((2-oxaspiro[3.3]heptan-6-yl)oxy)-5-fluorophenyl)piperidin-1-yl)-2-(1,3,4-oxadiazol-2-yl)-5-oxa-2-azaspiro[3.4]octane]
15 | 74 | 12 | 53 | 887 | Fc1ccc(OC2CCOCC2)c(C2CCN([C@@H]3COC4(C3)CN(c3ncon3)C4)CC2)c1 [Example 6A, (S)-7-(4-(5-fluoro-2-((tetrahydro-2H-pyran-4-yl)oxy)phenyl)piperidin-1-yl)-2-(1,2,4-oxadiazol-3-yl)-5-oxa-2-azaspiro[3.4]octane]
16 | 85 | 104 | 68 | 3590 | Fc1ccc(OC2CC3(COC3)C2)c(C2CCN([C@@H]3COC4(C3)CN(c3nncs3)C4)CC2)c1 [Example 5W, (S)-7-(4-(2-((2-oxaspiro[3.3]heptan-6-yl)oxy)-5-fluorophenyl)piperidin-1-yl)-2-(1,3,4-thiadiazol-2-yl)-5-oxa-2-azaspiro[3.4]octane]
17 | 45 | 157 | 74 | 640 | CC(C)(O)CCOc1cc(F)ccc1C1CCN([C@@H]2COC3(C2)CN(c2nnco2)C3)CC1 [Example 1T, (S)-4-(2-(1-(2-(1,3,4-oxadiazol-2-yl)-5-oxa-2-azaspiro[3.4]octan-7-yl)piperidin-4-yl)-5-fluorophenoxy)-2-methylbutan-2-ol]
18 | 90 | 1 | 103 | 61 | Cc1nnc(COc2ccc(F)cc2C2CCN([C@@H]3COC4(C3)CN(c3nnco3)C4)CC2)o1 [Example 2F, (S)-7-(4-(5-fluoro-2-((5-methyl-1,3,4-oxadiazol-2-yl)methoxy)phenyl)piperidin-1-yl)-2-(1,3,4-oxadiazol-2-yl)-5-oxa-2-azaspiro[3.4]octane]
19 | 89 | 26 | 69 | 1350 | c1ccc(C2CCN([C@@H]3COC4(C3)CN(c3nnco3)C4)CC2)c(O[C@@H]2CCOC2)c1 [Example 1O, (S)-2-(1,3,4-oxadiazol-2-yl)-7-(4-(2-(((R)-tetrahydrofuran-3-yl)oxy)phenyl)piperidin-1-yl)-5-oxa-2-azaspiro[3.4]octane]
20 | 83 | 35 | 76 | 663 | COc1ccc(F)cc1C1CCN([C@@H]2COC3(C2)CN(c2nnco2)C3)CC1 [Example 1V, (S)-7-(4-(5-fluoro-2-methoxyphenyl)piperidin-1-yl)-2-(1,3,4-oxadiazol-2-yl)-5-oxa-2-azaspiro[3.4]octane]
